Results from patent US8871749B2, “Bone-transplant or bone-filling composition comprising a dihydroxybenzoic acid derivative” (Cellsafe Co., Ltd., priority 2010, dated 2014).
Values after ≈ are worked out from the molar mass of the structure shown.

Tests used:
[1] = Cytotoxicity test (MTT); settings: mouse, L929 cells
Protocol: (§1) In order to evaluate the cytotoxicities of the compounds designed in Example 1, L929 cells (RIKEN Cell Bank, Japan) (1×10^4 cells per well) were placed on each well of a 96-well plate and then cultured for 12 hours. The cells were treated with each compound in predetermined concentrations and then cultured for 48 hours. After removing the medium, a MTT (3-(4,5-dimethylthiazol-2-yl)-2,5-diphenyltetrazolium bromide) solution (100 μl per well) was added to the cells, which were then incubated for 4 hours. After removing the supernatant, each well was treated with a DMSO solution (100 μl per well) and then incubated at room temperature for 10 minutes for extraction. An absorbance at 550 nm was measured with an ELISA reader (Bio-Tek instrument). The CC50 (Cytotoxic Concentration 50%) values were determined by comparing with a negative control (no treatment).

[2] = tested on: mandiblar molars transplanted into the kidney of female mouse (C57BL/6); assay: Alveolar bone formation activity, compound-soaked collagen bead in mandiblar molar transplanted into mouse kidney; type: in vivo; settings: for response vs control in vivo at 1000 µg/mL: 504 h, collagen bead dipped in 1 mg/ml solution (1-2 μg compound), molar transplanted into mouse kidney, after 3 weeks, stained area vs negative control (100%); for Alveolar bone formation activity (in words): mouse kidney transplant of molar with compound bead, 3 weeks
Protocol: Each compound of Example 1 was dissolved in a sterile biological saline to obtain a solution having a concentration of 1 mg/ml. Collagen bead (diameter: 1×2 mm, Gibco) used as a bone-grafting material was dipped into each solution at 37° C. for 45 minutes. Each resulting wet bead includes about 1-2 μl of the solution, and therefore 1-2 μg of each compound. Mandiblar molars before tooth-root formation were isolated from mice. The wet bead was inserted in the center of dental pulp of each isolated mandiblar molar, using tweezers. The resulting mandiblar molars were transplanted into the kidney of female mouse (C57BL/6). After 3 weeks, the growing molar teeth were fixed with a formalin solution and then stained with a Morse's solution. The stained sites were visualized under a microscope (Olympus IX71) and then the area was measured with an imageWarp software (London, England). The effects of the compounds on alveolar bone formation were evaluated by comparing with the negative control (100%).

[3] = tested on: MC3T3-E1 cells; assay: In-vitro bone nodules of osteoblasts (calcium accumulation); type: cell-based; settings: 27 days; for activity at 5 µg/mL: Mus musculus, 648 h, compound 5 μg/ml, relative to negative control (100); for Calcium accumulation in the cells (in words): 5 μg/ml
Protocol: MC3T3-E1 cells (RIKEN Cell Bank, Japan) (2×10^3 cells per well) as an osteoblast cell line were placed on each well of a 24-well plate and then cultured for 24 hours. The medium was changed with α-MEM supplemented with β-glycerophosphate and ascorbic acid as a differentiation-inducing agent for osteoblasts. Each compound of Example 1 was added to the culture medium in the final concentration of 5 μg/ml. The plate containing the cells was cultured for 27 days while changing the medium every three days or every four days. […] No treatment was made to the negative control. In order to quantify the amount of calcium accumulated in the cells, the cells were washed with a biological saline, and then calcium (Ca) was extracted with a 0.5N HCl solution for 6 hours on an agitator. The extracted solution (100 μl) was reacted with a Calcium Reagent (Sigma, USA) at room temperature for 5 minutes. […] The amount of calcium accumulated in the cells was calculated by obtaining relative absorbance differences through comparing with a negative control (no treatment).

[4] = tested on: MC3T3-E1 cells; assay: Alkaline phosphatase (ALP) activity of osteoblasts; type: cell-based; settings: 7 days; for activity at 5 µg/mL: Mus musculus, 168 h, compound 5 μg/ml, relative to negative control (100); for ALP activity (in words): 5 μg/ml
Protocol: After removing the medium, α-MEM supplemented with β-glycerophosphate and ascorbic acid were added thereto as a differentiation-inducing agent for osteoblasts. Each compound of Example 1 was added to the culture medium in the final concentration of 5 μg/ml. The plate containing the cells was cultured for 7 days. 100 μl of a cell lysis buffer (Sigma, Catalog number: MCL1) was added to the cells, which were then incubated at 37° C. for 30 minutes. The resulting mixture (50 μl) was reacted with p-nitrophenyl phosphate as a substrate in a 0.1N glycine-NaOH buffer (pH 9.8), at 37° C. for 30 minutes. Each amount of p-nitrophenol released from the substrate was quantified by measuring an absorbance at 405 nm using an ELISA reader (Bio-Tek instrument). […] The alkaline phosphatase activities were calculated by obtaining relative absorbance differences through comparing with a negative control (no treatment).

[5] = in vitro; settings: mouse
Protocol: as §1

SMILES | CC50 at 48 h [1] | response vs control in vivo at 1000 µg/mL [2] | activity at 5 µg/mL [3] | activity at 5 µg/mL [4] | CC50 at 48 h [5] | Alveolar bone formation activity (in words) [2] | Calcium accumulation in the cells (in words) [3] | ALP activity (in words) [4]
CCOC(=O)c1cc(O)cc(O)c1 [NP37, ethyl 3,5-dihydroxybenzoate] | 150 µg/mL (≈ 823 µM) | 122% | 159% | 153% | – | – | – | –
COC(=O)c1ccc(O)cc1O [NP34, methyl 2,4-dihydroxybenzoate] | 150 µg/mL (≈ 892 µM) | 130% | 158% | 149% | – | – | – | –
O=C(O)c1cc(O)ccc1O [NP23, 2,5-dihydroxybenzoic acid] | 200 µg/mL (≈ 1300 µM) | 119% | 163% | 152% | – | – | – | –
O=C(O)c1ccc(O)cc1O [NP22, 2,4-dihydroxybenzoic acid] | – | 121% | 159% | 153% | 150 µg/mL (≈ 973 µM) | – | – | –
CCOC(=O)c1ccc(O)c(O)c1 [NP31, ethyl 3,4-dihydroxybenzoate] | 100 µg/mL (≈ 549 µM) | 150% | 180% | 200% | – | – | – | –
CCOC(=O)c1cc(O)ccc1O [NP35, ethyl 2,5-dihydroxybenzoate] | 150 µg/mL (≈ 823 µM) | 450% | 580% | 560% | – | most excellent alveolar bone formation activities | most excellent calcium accumulation in the cells | most excellent ALP activities
CCOC(=O)c1c(O)cccc1O [NP36, ethyl 2,6-dihydroxybenzoate] | 200 µg/mL (≈ 1100 µM) | 121% | 160% | 157% | – | – | – | –
O=C(O)c1cccc(O)c1O [NP21, 2,3-dihydroxybenzoic acid] | 150 µg/mL (≈ 973 µM) | 110% | 132% | 147% | – | – | – | –
CCOC(=O)c1ccc(O)cc1O [NP33, ethyl 2,4-dihydroxybenzoate] | 100 µg/mL (≈ 549 µM) | 300% | 420% | 430% | – | most excellent alveolar bone formation activities | most excellent calcium accumulation in the cells | most excellent ALP activities
O=C(O)c1cc(O)cc(O)c1 [NP32, 3,5-dihydroxybenzoic acid] | 150 µg/mL (≈ 973 µM) | 123% | 163% | 155% | – | – | – | –
